# Results from US10000451B2, “MAP4K4 (HGK) inhibitors” (SRI INTERNATIONAL, priority 2015, dated 2018).
# Experiments:
# [1] = biological target: MAP4K4 (Homo sapiens, UniProt O95819); assay: MAP4K4 kinase assay (in-house); assay type: biochemical
# Text: Signaling pathways mediating anticancer activity. […] We established the MAP4K4 kinase assay in-house and confirmed that the compounds are indeed potent MAP4K4 inhibitors.
# [2] = system: DU-145; assay: Prostate cancer cell proliferation assay; assay type: cell-based; settings: Homo sapiens; DU-145, 72 hours; read-out: IC50 against prostate cancer cell lines
# Text: (§1) The dose-response curves of cell growth inhibition were consistent.
# (§2) Cell proliferation assays.
# [3] = system: LNCaP; assay: Prostate cancer cell proliferation assay; assay type: cell-based; settings: Homo sapiens, 72 hours, read-out: IC50 against prostate cancer cell lines
# Text: as §1, §2
# [4] = system: PC-3; assay: Prostate cancer cell proliferation assay; assay type: cell-based; settings: Homo sapiens; PC-3, 72 hours; read-out: IC50 against prostate cancer cell lines
# Text: as §1, §2
# [5] = system: T47D; assay: Breast cancer cell line growth inhibition; assay type: cell-based; settings: Homo sapiens, ER (+), read-out: IC50 against breast cancer cell lines
# Text: (§3) Generally, their potency is positively correlated with MAP4K4 expression in cancer cell lines.
# [6] = system: HS578T; assay: Breast cancer cell line growth inhibition; assay type: cell-based; settings: Homo sapiens, Hs-578T, triple negative, read-out: IC50 against breast cancer cell lines
# Text: as §3
# [7] = system: MCF-7; assay: Breast cancer cell line growth inhibition; assay type: cell-based; settings: Homo sapiens, MCF7; MCF-7, ER (+); read-out: IC50 against breast cancer cell lines
# Text: as §3
# [8] = system: MDA-MB-231; assay: Breast cancer cell line growth inhibition; assay type: cell-based; settings: Homo sapiens; MDA-MB-231, triple negative; read-out: IC50 against breast cancer cell lines
# Text: as §3
# [9] = system: BT549; assay: Breast cancer cell line growth inhibition; assay type: cell-based; settings: Homo sapiens, BT-549; BT549, triple negative; read-out: IC50 against breast cancer cell lines
# Text: as §3
# [10] = system: SF539; assay: Activity against cancer cell lines; assay type: cell-based; settings: Homo sapiens, SF-539
# Text: (§4) Exemplary data is shown below.
# [11] = system: HCT15; assay: Activity against cancer cell lines; assay type: cell-based; settings: Homo sapiens, HCT-15
# Text: as §4
# [12] = system: UO31; assay: Activity against cancer cell lines; assay type: cell-based; settings: Homo sapiens, UO-31
# Text: as §4
# [13] = system: A498; assay: Activity against cancer cell lines; assay type: cell-based; settings: Homo sapiens
# Text: as §4
# [14] = system: CAKI1; assay: Activity against cancer cell lines; assay type: cell-based; settings: Homo sapiens, CAKI-1
# Text: as §4
# [15] = system: ADRRES; assay: Activity against cancer cell lines; assay type: cell-based
# Text: as §4
# [16] = system: MDAMB435; assay: Activity against cancer cell lines; assay type: cell-based; settings: Homo sapiens, MDA-MB-435
# Text: as §4
# [17] = system: MCF7; assay: Activity against cancer cell lines; assay type: cell-based; settings: Homo sapiens
# Text: as §4
# [18] = system: SNB75; assay: Activity against cancer cell lines; assay type: cell-based; settings: Homo sapiens, SNB-75, SNB75
# Text: as §4
# [19] = system: OVCAR4; assay: Activity against cancer cell lines; assay type: cell-based
# Text: as §4
# [20] = system: SKMEL5; assay: Activity against cancer cell lines; assay type: cell-based; settings: Homo sapiens, SK-MEL-5
# Text: as §4
# [21] = system: HL60; assay: Activity against cancer cell lines; assay type: cell-based
# Text: as §4
# [22] = system: SKMEL2; assay: Activity against cancer cell lines; assay type: cell-based; settings: Homo sapiens, SK-MEL-2
# Text: as §4
# [23] = system: SF295; assay: Activity against cancer cell lines; assay type: cell-based; settings: Homo sapiens, SF-295
# Text: as §4
# [24] = system: RXF393; assay: Activity against cancer cell lines; assay type: cell-based; settings: Homo sapiens, RXF 393
# Text: as §4
# [25] = system: LOXIMVI; assay: Activity against cancer cell lines; assay type: cell-based; settings: Homo sapiens, LOX IMVI
# Text: as §4
# [26] = system: MOLT4; assay: Activity against cancer cell lines; assay type: cell-based; settings: Homo sapiens, MOLT-4
# Text: as §4
# [27] = system: M14; assay: Activity against cancer cell lines; assay type: cell-based; settings: Homo sapiens
# Text: as §4
# [28] = system: NCIH522; assay: Activity against cancer cell lines; assay type: cell-based; settings: Homo sapiens, NCI-H522
# Text: as §4
# [29] = system: ACHN; assay: Activity against cancer cell lines; assay type: cell-based; settings: Homo sapiens
# Text: as §4
# [30] = system: PC-3 prostate cancer xenografts; assay: Antitumor activity in PC-3 xenografts; assay type: in vivo; settings: nude mice
# Protocol: In vivo efficacy studies: antitumor and antimetastatic effects against androgen-insensitive prostate cancer. Antitumor activity was tested in nude mice bearing aggressive, androgen-independent PC-3 prostate cancer xenografts. Docetaxel, a standard treatment for metastatic prostate cancer, was included in the study as a positive control. Docetaxel was administered at its maximum tolerated dose (MTD) via intraperitoneal (IP) (Q3Dx2; Monday, Friday). Mice were orally treated with compound in 0.5% HPC with 4 different treatment regimens. The control group was treated with vehicle (0.5% HPC) only. Treatment was initiated when average tumor volume reached 100 mm^3 (10 mice per group).
# The compounds show a significant dose-dependent growth inhibition of prostate tumor. Docetaxel at its MTD (7.5 mg/kg; Q3Dx2) produces only 10-15% growth inhibition. […] Treatment with representative compounds (12.5, 25 and 50 mg/kg/day) caused a significant dose-dependent growth reduction of PC-3 tumors.
# MAP4K4, sequence (O95819 whole entry): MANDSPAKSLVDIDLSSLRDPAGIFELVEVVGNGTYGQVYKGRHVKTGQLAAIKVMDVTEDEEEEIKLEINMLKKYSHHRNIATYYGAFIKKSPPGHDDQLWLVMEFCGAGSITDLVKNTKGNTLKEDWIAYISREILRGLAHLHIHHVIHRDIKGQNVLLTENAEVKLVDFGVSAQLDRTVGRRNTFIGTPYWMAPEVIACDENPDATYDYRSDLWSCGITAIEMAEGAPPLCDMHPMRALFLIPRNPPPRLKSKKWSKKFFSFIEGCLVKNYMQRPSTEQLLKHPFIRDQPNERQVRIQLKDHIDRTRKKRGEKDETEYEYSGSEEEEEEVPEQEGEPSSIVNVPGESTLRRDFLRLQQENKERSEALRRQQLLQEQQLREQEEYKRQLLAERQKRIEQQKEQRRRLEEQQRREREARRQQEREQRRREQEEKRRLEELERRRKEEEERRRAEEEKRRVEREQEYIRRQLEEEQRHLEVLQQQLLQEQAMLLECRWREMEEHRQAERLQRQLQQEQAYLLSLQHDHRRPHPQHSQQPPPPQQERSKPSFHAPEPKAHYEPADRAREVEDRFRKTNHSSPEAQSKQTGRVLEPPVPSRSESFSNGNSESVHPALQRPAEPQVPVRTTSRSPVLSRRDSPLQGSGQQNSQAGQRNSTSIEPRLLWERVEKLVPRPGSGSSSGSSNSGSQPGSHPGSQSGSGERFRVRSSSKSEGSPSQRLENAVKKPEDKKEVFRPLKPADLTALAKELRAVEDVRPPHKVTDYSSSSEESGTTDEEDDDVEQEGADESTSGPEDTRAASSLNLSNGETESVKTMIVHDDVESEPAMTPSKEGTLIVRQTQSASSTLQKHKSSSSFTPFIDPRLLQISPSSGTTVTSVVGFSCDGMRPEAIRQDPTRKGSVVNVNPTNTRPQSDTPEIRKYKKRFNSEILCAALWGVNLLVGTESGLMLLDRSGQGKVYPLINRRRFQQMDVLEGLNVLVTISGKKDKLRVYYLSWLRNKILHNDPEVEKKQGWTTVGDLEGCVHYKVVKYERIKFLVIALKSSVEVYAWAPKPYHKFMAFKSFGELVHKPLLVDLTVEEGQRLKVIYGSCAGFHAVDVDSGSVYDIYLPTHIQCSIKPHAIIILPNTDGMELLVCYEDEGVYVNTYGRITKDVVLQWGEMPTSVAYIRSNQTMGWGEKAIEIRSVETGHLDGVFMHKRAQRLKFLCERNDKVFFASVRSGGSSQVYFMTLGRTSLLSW
smiles,measurement,setting,value
"COc1ccc2[nH]c(C(=O)c3ccc4[nH]cc(C)c4c3)cc2c1 [Cmpd 4, (5-methoxy-1H-indol-2-yl)(3-methyl-1H-indol-5-yl)methanone]",IC50,[1],380 nM
"COc1ccc2[nH]c(C(=O)c3ccc4[nH]ccc4c3)c(C)c2c1 [Cmpd 5, (1H-indol-5-yl)(5-methoxy-3-methyl-1H-indol-2-yl)methanone]",IC50,[1],300 nM
"COc1ccc2[nH]c(C(=O)c3ccc4[nH]cc(Cl)c4c3)cc2c1 [Cmpd 9, (3-chloro-1H-indol-5-yl)(5-methoxy-1H-indol-2-yl)methanone]",IC50,[1],1700 nM
"Cc1c[nH]c2ccc(C(=O)c3cc4cc(O)ccc4[nH]3)cc12 [Cmpd 12, (5-hydroxy-1H-indol-2-yl)(3-methyl-1H-indol-5-yl)methanone]",IC50,[1],1000 nM
"COc1cc2cc(C(=O)c3ccc4[nH]ccc4c3)[nH]c2cc1OC [Cmpd 15, (5,6-dimethoxy-1H-indol-2-yl)(1H-indol-5-yl)methanone]",IC50,[2],35 nM
same,IC50,[3],21 nM
same,IC50,[4],17 nM
same,IC50,[5],30 nM
same,IC50,[6],16 nM
same,IC50,[7],123 nM
same,IC50,[8],21 nM
same,IC50,[9],17 nM
"COc1ccc2[nH]c(C(=O)c3ccc4[nH]ncc4c3)cc2c1 [Cmpd 17, (1H-indazol-5-yl)(5-methoxy-1H-indol-2-yl)methanone]",IC50,[1],260 nM
same,IC50,[2],14 nM
same,IC50,[3],9 nM
same,IC50,[4],6 nM
same,IC50,[5],17 nM
same,IC50,[6],10 nM
same,IC50,[7],53 nM
same,IC50,[8],10 nM
same,IC50,[9],9 nM
"CCc1n[nH]c2ccc(C(=O)c3cc4cc(OC)ccc4[nH]3)cc12 [Cmpd 19, (3-ethyl-1H-indazol-5-yl)(5-methoxy-1H-indol-2-yl)methanone]",IC50,[1],9 nM
"COc1ccc2[nH]c(C(=O)c3ccc4[nH]nc(Cl)c4c3)cc2c1 [Cmpd 20, (3-chloro-1H-indazol-5-yl)(5-methoxy-1H-indol-2-yl)methanone]",IC50,[1],310 nM
"COc1ccc2[nH]c(C(=O)c3ccc4[nH]nc(F)c4c3)cc2c1 [Cmpd 21, (3-fluoro-1H-indazol-5-yl)(5-methoxy-1H-indol-2-yl)methanone]",IC50,[1],100 nM
"COc1ccc2[nH]c(C(=O)c3ccc4[nH]nc(CN5CCOCC5)c4c3)cc2c1 [Cmpd 22, (5-methoxy-1H-indol-2-yl)(3-(morpholinomethyl)-1H-indazol-5-yl)methanone]",IC50,[1],21000 nM
"COc1ccc2[nH]c(C(=O)c3ccc4[nH]ncc4c3)c(Cl)c2c1 [Cmpd 23, (3-chloro-5-methoxy-1H-indol-2-yl)(1H-indazol-5-yl)methanone]",IC50,[1],410 nM
same,IC50,[2],53 nM
same,IC50,[3],28 nM
same,IC50,[4],20 nM
same,IC50,[5],44 nM
same,IC50,[6],29 nM
same,IC50,[7],114 nM
same,IC50,[8],28 nM
same,IC50,[9],23 nM
"COc1ccc2[nH]c(C(=O)c3ccc4[nH]ncc4c3)cc2c1Cl [Cmpd 24, (4-chloro-5-methoxy-1H-indol-2-yl)(1H-indazol-5-yl)methanone]",IC50,[1],12000 nM
"COc1cccc2cc(C(=O)c3ccc4[nH]nc(C)c4c3)[nH]c12 [Cmpd 28, (7-methoxy-1H-indol-2-yl)(3-methyl-1H-indazol-5-yl)methanone]",IC50,[1],650 nM
"COc1cccc2[nH]c(C(=O)c3ccc4[nH]nc(C)c4c3)cc12 [Cmpd 29, (4-methoxy-1H-indol-2-yl)(3-methyl-1H-indazol-5-yl)methanone]",IC50,[1],650 nM
"COc1cc2cc(C(=O)c3ccc4[nH]nc(C)c4c3)[nH]c2cn1 [Cmpd 31, (5-methoxy-1H-pyrrolo[2,3-c]pyridin-2-yl)(3-methyl-1H-indazol-5-yl)methanone]",IC50,[1],13 nM
"COc1ccc2[nH]c(C(=O)c3cnc4[nH]ccc4c3)cc2c1 [Cmpd 33, (5-methoxy-1H-indol-2-yl)(1H-pyrrolo[2,3-b]pyridin-5-yl)methanone]",IC50,[1],46 nM
"COc1ccc2[nH]c(C(=O)c3ccc4[nH]c(C(F)(F)F)nc4c3)cc2c1 [Cmpd 35, (5-methoxy-1H-indol-2-yl)(2-(trifluoromethyl)-1H-benzo[d]imidazol-5-yl)methanone]",IC50,[1],7500 nM
"COc1ccc2[nH]c(C(=O)c3ccc4[nH]nnc4c3)cc2c1 [Cmpd 36, (1H-benzo[d][1,2,3]triazol-5-yl)(5-methoxy-1H-indol-2-yl)methanone]",IC50,[1],570 nM
"COc1ccc2[nH]c(C(=NO)c3ccc4[nH]ccc4c3)cc2c1 [Cmpd 37, (1H-indol-5-yl)(5-methoxy-1H-indol-2-yl)methanone oxime]",IC50,[10],170 nM
same,IC50,[11],68 nM
same,IC50,[12],690 nM
same,IC50,[13],330 nM
same,IC50,[14],67 nM
same,IC50,[15],64 nM
same,IC50,[16],66 nM
same,IC50,[17],85 nM
same,IC50,[18],110 nM
same,IC50,"[19]; Homo sapiens, OVCAR-4, OVCAR4",150 nM
same,IC50,[19]; OVCAR4,110 nM
same,IC50,[20],210 nM
same,IC50,[21]; HL60,78 nM
same,IC50,"[21]; Homo sapiens, HL-60, HL60",81 nM
same,IC50,[22],580 nM
same,IC50,[23],250 nM
same,IC50,[24],140 nM
same,IC50,[25],440 nM
same,IC50,[26],120 nM
same,IC50,[27],110 nM
same,IC50,[28],100 nM
same,IC50,[29],760 nM
"CC(=O)O[C@@]12CO[C@@H]1C[C@H](O)[C@@]1(C)C(=O)[C@H](O)C3=C(C)[C@@H](OC(=O)[C@H](O)[C@@H](NC(=O)OC(C)(C)C)c4ccccc4)C[C@@](O)([C@@H](OC(=O)c4ccccc4)[C@H]21)C3(C)C [Docetaxel, reference compound]",IC50,[2],72 nM
same,IC50,[3],31 nM
same,IC50,[4],95 nM
same,tumor growth inhibition,"[30]; PC-3 xenografts, MTD 7.5 mg/kg IP Q3Dx2",10-15%
same,lethal toxicity,"[30]; 7.5 mg/kg IP, after the 4th injection",mice died on Day 13 due to lethal toxicity
"CC(=O)O[C@H]1C(=O)[C@@]2(C)[C@H]([C@H](OC(=O)c3ccccc3)[C@]3(O)C[C@H](OC(=O)[C@H](O)[C@@H](NC(=O)c4ccccc4)c4ccccc4)C(C)=C1C3(C)C)[C@]1(OC(C)=O)CO[C@@H]1C[C@@H]2O [Paclitaxel, reference compound]",IC50,[5],152 nM
same,IC50,[6],148 nM
same,IC50,[7],156 nM
same,IC50,[8],153 nM
same,IC50,[9],151 nM
